# Source: article PMC12362582, “Linker Methylation as a Strategy to Enhance PROTAC Oral Bioavailability: Insights from Molecular Properties and Conformational Analysis” (Journal of Medicinal Chemistry, 2025)
# Like-named read-outs stand apart in the source and are kept apart here.
# How the values were obtained:
# [1] = Chamelogk chromatographic chameleonicity (PLRP-S column); assay type: physicochemical; settings: Exp. log k'100 – Ext. log k'100, PLRP-S column
# Source text: Chameleonicity was monitored by Chamelogk, a recent chromatographic descriptor able to capture environment-dependent conformational changes by monitoring different mobile phase compositions on the PLRP-S column. All PROTACs behave as strong chameleons (Chamelogk > 0.6). Additionally, we calculated the EPSA-to-TPSA ratio (ETR), a recently proposed index for polarity masking. The ETR values remained consistently around 0.7 across the series, supporting the notion that conformational effects contribute uniformly to the polarity profiles of the analyzed PROTACs.
# Using the PLRP-S column, we assessed the RT of each PROTAC in the data set at four different mobile phase conditions (50, 60, 70 and 100% MeCN) and calculated the capacity factor at each mobile phase composition. First, we constructed a linear trend using the first three mobile phase conditions (50, 60, and 70% MeCN) that respected a linear behavior and calculated the extrapolated value at 100% MeCN (Ext. log k′100). Chamelogk was then calculated with the following equation: Chamelogk = Exp. log k′100 – Ext. log k′100.
# [2] = log kW IAM (IAM.PC.DD2 column) and derived Δlog kW IAM polarity; assay type: physicochemical; settings: for log kW^IAM: IAM.PC.DD2 column, extrapolated, pH 7; for Δlog kW^IAM: log kW IAM – clog kW IAM (clog = 0.92*BRlogD – 1.03)
# Protocol: (§1) Lipophilicity was assessed using three chromatographic descriptors, each simulating distinct aspects of membrane environments. BRlogD is a surrogate of the octanol/water distribution coefficient (log D oct) reflecting a general partitioning across biological membranes. Log k W ^IAM implements an Immobilized Artificial Membrane (IAM) column which provides a lipophilicity index in an environment resembling the membrane phospholipids. Finally, log k′80 PLRP-S reflects retention in a hydrophobic polymeric column environment, mimicking the nonpolar core of lipid bilayers, and acts as a surrogate for the toluene/water partition coefficient (log D tol). Lipophilicity remained within a moderate range across all systems.
# Polarity was quantified by Δlog k W ^IAM, a descriptor obtained from the experimental log k W ^IAM and BRlogD. In addition, we also measured EPSA (Table S2), another polarity descriptor based on a supercritical fluid chromatographic (SFC) system widely used in drug discovery.
# (§2) All chromatographic measurements were performed using the Thermo Scientific Inc. HPLC DIONEX Ultimate 3000 connected to an RS diode array and the Chromeleon 7.2.10 software (www.thermofisher.com). 1.5 mL HPLC vials, 9 mm PP screw caps, and high-performance ergonomic single-channel variable volume pipettors from VWR Signature were used. A Eutech pH Meter 2700 was used to regulate the pH of each buffer and sample (www.fishersci.com). For all the chromatographic descriptors, the mobile phase consisted of an acetonitrile solution (ACN) and 20 mM AAB, pH 7. Moreover, 10 μL was set as the volume of injection of compound concentrations ranging from 50 to 100 μg/mL in ACN/buffer mixtures. One mL/min was chosen as the isocratic flow rate and 30 °C as the oven temperature. However, each chromatographic system (RP) had its own conditions:
# This descriptor required the use of an IAM.PC.DD2 (300 Å, 10 μm, 10 cm × 4.6 mm) column from REGIS. The organic solvent of the eluent, ACN, was modified at various percentages (from 10 to 50%, v/v) and the retention times were measured. Next, the capacity factor (log k′) values were calculated as described elsewhere and the equation represented by the five was obtained. Lastly the extrapolated value at 100% ACN (0% aqueous buffer) or log k w ^IAM was obtained. Caffeine, carbamazepine, ketoprofen, theobromine, and toluene were checked daily as gold standards. ,
# This polarity descriptor was calculated using the equation Δlog k w ^IAM = log k w ^IAM – clog k w ^IAM. Clog k w ^IAM, defined as the log k w ^IAM for neutral compounds with PSA = 0, has been correlated to BRlogD by our group with the equation: clog k w ^IAM= 0.92*BRlogD – 1.03.
# [3] = log k'80 PLRP-S chromatographic lipophilicity; assay type: physicochemical; settings: 80% ACN / 20% 20 mM ammonium acetate, pH 7.0
# Protocol: Molecular properties have been quantified with physicochemical descriptors of ionization, lipophilicity, polarity and chameleonicity (see Methods). First, ionization of the 11 PROTACs (basic center, Figure a) was analyzed by potentiometry. However, standard pK a measurements in water were limited by solubility and precipitation issues (data not shown). Therefore, to assess the dominant species at physiological pH we adopted a chromatographic method previously published by some of us. Briefly, we monitored the trend of the capacity factor named log k′80 PLRP-S at different pHs (acid-neutral-basic). […] The most neutral feature of the considered PROTACs in in line with the main role played by the neutral species in crossing membranes.
# as §1, §2
# Log k′80 PLRP-S and Chamelogk, on the other hand, were measured using the PLRP-S polymeric reversed-phase column (100 Å, 5 μm, 50 × 4.6 mm) from Agilent (www.agilent.com). The assessment of log k′80 PLRP-S involved the measurement and calculation of the capacity factor of each sample at an eluent composition of 80% ACN and 20% 20 mM ammonium acetate at pH 7.0. In addition, acetone, caffeine, phenol and a mixture of uracile, acetophenone and toluene were used as gold standards. Moreover, log k′80 PLRP-S was also assessed at different pHs (2, 7 and 12) using 0.1% formate buffer, 0.1% ammonium acetate, and 10 mM triethylamine.
# [4] = Bidirectional Caco-2 permeability and efflux ratio assay; assay type: in vitro ADME; settings: human
# [5] = with Zosuquidar (P-gp inhibitor), concentration not given, Caco-2, in the presence of a Pgp inhibitor (Zosuquidar), read-out: ER (+Pgp inhibitor)
# [6] = Caco-2, in the absence of an inhibitor, read-out: ER (Caco-2 efflux ratio)
SMILES,Chamelogk [1],log kW^IAM [2],Δlog kW^IAM [2],log k'80 PLRP-S [3],"efflux ratio at 1 μM [4, 5]","efflux ratio at 1 μM [4, 6]",Δlog kW^IAM ([2]; listed as A5–1),Δlog kW^IAM ([2]; listed as A5–4)
Cc1ncsc1-c1ccc([C@H](CCCN2CCC(c3ccc4c(c3)n(C3CCCC3)c3nc(=O)c5c(Br)cccc5n43)CC2)NC(=O)[C@@H]2C[C@@H](O)CN2C(=O)[C@@H](NC(=O)C2(F)CC2)C(C)(C)C)cc1 [A3-1],>2,2.01,0.93,0.07,1.8,–,–,–
Cc1ncsc1-c1ccc([C@H](C[C@H](C)CN2CCC(c3ccc4c(c3)n(C3CCCC3)c3nc(=O)c5c(Br)cccc5n43)CC2)NC(=O)[C@@H]2C[C@@H](O)CN2C(=O)[C@@H](NC(=O)C2(F)CC2)C(C)(C)C)cc1 [A3-2],>2,2.21,0.21,0.18,0.9,9,–,–
Cc1ncsc1-c1ccc([C@H](C[C@@H](C)CN2CCC(c3ccc4c(c3)n(C3CCCC3)c3nc(=O)c5c(Br)cccc5n43)CC2)NC(=O)[C@@H]2C[C@@H](O)CN2C(=O)[C@@H](NC(=O)C2(F)CC2)C(C)(C)C)cc1 [A3-3],>2,2.29,0.26,0.32,0.4,5.1,–,–
Cc1ncsc1-c1ccc([C@H](CCCCCN2CCC(c3ccc4c(c3)n(C3CCCC3)c3nc(=O)c5c(Br)cccc5n43)CC2)NC(=O)[C@@H]2C[C@@H](O)CN2C(=O)[C@@H](NC(=O)C2(F)CC2)C(C)(C)C)cc1 [A5-1],>2,3.00,1.77,0.03,1.6,24.2,> 1.5,–
Cc1ncsc1-c1ccc([C@H](CC[C@H](C)CCN2CCC(c3ccc4c(c3)n(C3CCCC3)c3nc(=O)c5c(Br)cccc5n43)CC2)NC(=O)[C@@H]2C[C@@H](O)CN2C(=O)[C@@H](NC(=O)C2(F)CC2)C(C)(C)C)cc1 [A5-2],>2,2.37,0.85,0.22,1.6,7.5,–,–
Cc1ncsc1-c1ccc([C@H](CC[C@@H](C)CCN2CCC(c3ccc4c(c3)n(C3CCCC3)c3nc(=O)c5c(Br)cccc5n43)CC2)NC(=O)[C@@H]2C[C@@H](O)CN2C(=O)[C@@H](NC(=O)C2(F)CC2)C(C)(C)C)cc1 [A5-3],>2,2.38,0.83,0.28,1,3.3,–,–
Cc1ncsc1-c1ccc([C@@H](CC[C@@H](C)CCN2CCC(c3ccc4c(c3)n(C3CCCC3)c3nc(=O)c5c(Br)cccc5n43)CC2)NC(=O)[C@@H]2C[C@@H](O)CN2C(=O)[C@@H](NC(=O)C2(F)CC2)C(C)(C)C)cc1 [A5-4],>2,3.31,1.8,0.14,0.9,–,–,> 1.5
Cc1ncsc1-c1ccc([C@H](COCCN2CCC(c3ccc4c(c3)n(C3CCCC3)c3nc(=O)c5c(Br)cccc5n43)CC2)NC(=O)[C@@H]2C[C@@H](O)CN2C(=O)[C@@H](NC(=O)C2(F)CC2)C(C)(C)C)cc1 [B-1],>2,1.97,0.61,0.05,3,–,–,–
Cc1ncsc1-c1ccc([C@H](CO[C@H](C)CN2CCC(c3ccc4c(c3)n(C3CCCC3)c3nc(=O)c5c(Br)cccc5n43)CC2)NC(=O)[C@@H]2C[C@@H](O)CN2C(=O)[C@@H](NC(=O)C2(F)CC2)C(C)(C)C)cc1 [B-2],>2,1.92,0.57,0.05,1.8,–,–,–
Cc1ncsc1-c1ccc([C@H](CO[C@@H](C)CN2CCC(c3ccc4c(c3)n(C3CCCC3)c3nc(=O)c5c(Br)cccc5n43)CC2)NC(=O)[C@@H]2C[C@@H](O)CN2C(=O)[C@@H](NC(=O)C2(F)CC2)C(C)(C)C)cc1 [B-3],>2,2.06,0.58,0.08,2.2,23.9,–,–
Cc1ncsc1-c1ccc([C@H](COC(C)(C)CN2CCC(c3ccc4c(c3)n(C3CCCC3)c3nc(=O)c5c(Br)cccc5n43)CC2)NC(=O)[C@@H]2C[C@@H](O)CN2C(=O)[C@@H](NC(=O)C2(F)CC2)C(C)(C)C)cc1 [B-4],>2,2.00,–,0.11,1.1,31.3,–,–
